Results on ten compounds are retold here after ChEMBL document CHEMBL1201862, “PubChem BioAssay data set” (2004).

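Compound exposure: 48 hours, 5 concentrations, 96-well plates. GI50 = concentration required for 50% inhibition of growth.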 Calls of active or inactive are those of the source. Cut-off read from the data, not from the text of the source: active = GI50 up to about 1.1 µM and inactive = higher. Where only a bound is given, the exact number is not on record here.

What all share (assay): NCI tumour cell line growth inhibition, 48 h
Experiment [1] relates to CCRF-CEM.
Experiment [2] concerns MCF7.
Experiment [3] concerns NCI/ADR-RES.
Experiment [4] concerns CAKI-1.
Experiment [5] has as its system BT-549.
The subject of experiment [6] is M14.
The test system of experiment [7] is HCT-116.
Experiment [8] deals with SN12C.
In experiment [9] the test system is UACC-62.
For experiment [10], the system named is MOLT-4.
Experiment [11] has as its system U-251.
Experiment [12] has as its system NCI-H522.
In experiment [13] the test system is IGROV-1.
Experiment [14] relates to MDA-N.
Experiment [15] deals with HT-29.
Experiment [16] relates to TK-10.
In experiment [17] the test system is SNB-75.
Experiment [18] deals with OVCAR-3.
In experiment [19] the test system is SK-MEL-2.

On to `Nc1ccc2c(c1)C(=O)c1ccc(F)cc1-2`, for which the GI50 in experiment [1], in experiment [2], in experiment [3], in experiment [4], in experiment [5] and in experiment [6] was > 100 µM (inactive) each time. Further, the GI50 in experiment [7] was 88.5 µM (inactive); in experiment [8], > 100 µM (inactive); in experiment [9], > 100 µM (inactive); in experiment [10], 57.8 µM (inactive); in experiment [11] it was 40.8 µM (inactive); in experiment [12], > 100 µM (inactive). Also, the GI50 in experiment [13], in experiment [14], in experiment [15], in experiment [16], in experiment [17] and in [18] was > 100 µM (inactive) in each case. Also, the GI50 in experiment [19] is > 100 µM (inactive).
In the case of `N/C(=N\N=C\c1nc2ccccc2o1)c1cnccn1`, the GI50 in [1], in experiment [2], in experiment [3], in experiment [4], in [5] and in [6] was > 100 µM (inactive) in each case. Moreover, the GI50 in experiment [7] was > 100 µM (inactive); in [8] it was > 100 µM (inactive); in experiment [9] it was > 100 µM (inactive); in experiment [10] it was > 100 µM (inactive); in experiment [11] it was 35.6 µM (inactive); in experiment [12], > 100 µM (inactive). The GI50 in [13] is > 100 µM (inactive); in experiment [14], > 100 µM (inactive); in [15] it was > 100 µM (inactive); in [16], 30.7 µM (inactive); in [17] it was 16.4 µM (inactive); in experiment [18] it was > 100 µM (inactive). Also, the GI50 in experiment [19] is 80.7 µM (inactive).
Turning to `CC(C)/C(Cl)=N\OC(=O)Nc1ccc(F)c([N+](=O)[O-])c1`, the GI50 in experiment [1] was 0.902 µM (active); in experiment [2], 17.7 µM (inactive); in experiment [3] it was 18.4 µM (inactive); in experiment [4], 1.81 µM (inactive); in experiment [5], 13.4 µM (inactive); in experiment [6] it was 3.88 µM (inactive). In addition, the GI50 in [7] was 3.08 µM (inactive); in experiment [8], 5.83 µM (inactive); in [9] it was 17.6 µM (inactive); in [10], 1.57 µM (inactive); in experiment [11], 16.4 µM (inactive); in experiment [12], 0.792 µM (active). The GI50 in [13] is 6.53 µM (inactive); in experiment [14], 14 µM (inactive); in experiment [15], 15.9 µM (inactive); in [16], 6.22 µM (inactive); in [17] it was 14.2 µM (inactive); in experiment [18], 14.2 µM (inactive). For the same compound, in experiment [19], the GI50 was 16.2 µM (inactive).
For the compound `Cc1c(C)c2c(c(N)c1C#N)C(=O)N(CCN1CCNCC1)C2=O`, the GI50 in [1] was 33.4 µM (inactive); in [2] it was 34.8 µM (inactive); in experiment [3], 33.4 µM (inactive); in [4] it was 42 µM (inactive); in experiment [5], 35.2 µM (inactive); in experiment [6] it was 33.8 µM (inactive). For the same compound, the GI50 in [7] was 16.1 µM (inactive); in [8], 32.5 µM (inactive); in [9], 23.2 µM (inactive); in experiment [10], 30.5 µM (inactive); in experiment [11], 43.7 µM (inactive); in [12], 17.9 µM (inactive). Also, the GI50 was 34.7 µM (inactive) in [13]; 40.9 µM (inactive) in [14]; 36.7 µM (inactive) in experiment [16]; 26.2 µM (inactive) in experiment [17]; 33.3 µM (inactive) in [18]; 35.9 µM (inactive) in experiment [19].
On to `CC1=C(C(=O)OCCc2ccc([N+](=O)[O-])cc2)C(c2ccccc2C(F)(F)F)C(C(=O)OC(C)C)=C(C)N1` (stereo not drawn), for which the GI50 was 2.84 µM (inactive) in experiment [1]; 3.36 µM (inactive) in experiment [2]; 2.75 µM (inactive) in experiment [3]; 2.9 µM (inactive) in experiment [4]; 3.21 µM (inactive) in experiment [5]; 2.41 µM (inactive) in experiment [6]. For the same compound, the GI50 in experiment [7] was 2.92 µM (inactive); in [8] it was 3.12 µM (inactive); in [9], 3.22 µM (inactive); in experiment [10], 2.08 µM (inactive); in experiment [11] it was 3.52 µM (inactive); in experiment [12], 3.31 µM (inactive). Moreover, the GI50 in experiment [13] was 4.88 µM (inactive); in experiment [14], 4.33 µM (inactive); in experiment [15], 10.1 µM (inactive); in [16], 3.78 µM (inactive); in [17], 4.04 µM (inactive); in [18] it was 3.48 µM (inactive). The GI50 in [19] is 2.64 µM (inactive).
As to `CC1(C)[C@@H]2CC[C@@]1(C)C1(S[S+]1[O-])C21Cc2ccccc2C1` (stereo partly drawn), the GI50 in [1] is 5.25 µM (inactive); in [2], 22.1 µM (inactive); in [3], 25.6 µM (inactive); in experiment [4], 20.4 µM (inactive); in [5], 32.1 µM (inactive); in experiment [6], 33.4 µM (inactive). Besides, the GI50 in experiment [7] is 14.7 µM (inactive); in experiment [8] it was 18.1 µM (inactive); in experiment [9], 22.2 µM (inactive); in experiment [10], 16.3 µM (inactive); in experiment [11] it was 24.9 µM (inactive); in experiment [12] it was 15.8 µM (inactive). Moreover, the GI50 was 17.2 µM (inactive) in experiment [13]; 17.1 µM (inactive) in experiment [14]; 17.9 µM (inactive) in experiment [15]; 18.8 µM (inactive) in experiment [16]; 31 µM (inactive) in experiment [17]; 31.7 µM (inactive) in [18]. For the same compound, the GI50 in experiment [19] was 17.2 µM (inactive).
Regarding `CSc1cc(Cl)c(C(=O)Nc2ccccc2)cc1S(=O)(=O)n1ccnc1O`, the GI50 in experiment [1], in experiment [2], in experiment [3], in experiment [4], in [5] and in [6] was > 100 µM (inactive) each time. The GI50 in [7], in experiment [8], in experiment [9], in experiment [10], in experiment [11] and in experiment [12] was > 100 µM (inactive) in each case. The GI50 in [13], in experiment [14], in experiment [15], in experiment [16], in experiment [17] and in experiment [18] was > 100 µM (inactive) in each case. Further, in experiment [19], the GI50 is > 100 µM (inactive).
For `O=C1c2ccccc2C(=O)c2c(NCC3CO3)cccc21` (stereo not drawn), the GI50 in [1] is 1.43 µM (inactive); in experiment [2], 1.31 µM (inactive); in [3], 9.91 µM (inactive); in experiment [4] it was 4.75 µM (inactive); in experiment [5] it was 19 µM (inactive); in [6], 11.3 µM (inactive). Moreover, the GI50 was 7.01 µM (inactive) in experiment [7]; 7.66 µM (inactive) in experiment [8]; 16 µM (inactive) in experiment [9]; 3.77 µM (inactive) in [10]; 14 µM (inactive) in [11]; 23.2 µM (inactive) in experiment [12]. For the same compound, the GI50 in experiment [13] is 17.4 µM (inactive); in experiment [14], 8.99 µM (inactive); in experiment [15], 18.2 µM (inactive); in [16], 40.9 µM (inactive); in experiment [17], > 100 µM (inactive); in experiment [18], 15.4 µM (inactive). Also, in experiment [19], the GI50 is 17.2 µM (inactive).
As to `COC(=O)CC1C(COC(C)=O)OC(n2cc(C)c(=O)[nH]c2=O)C1OC(C)=O` (stereo not drawn), the GI50 in experiment [1], in experiment [2], in experiment [3], in [4], in [5] and in [6] was > 100 µM (inactive) throughout. The GI50 in experiment [7], in experiment [8], in [9], in [11], in [12] and in experiment [13] was > 100 µM (inactive) each time. The GI50 in [14], in experiment [15], in experiment [16], in experiment [17], in experiment [18] and in experiment [19] was > 100 µM (inactive) in each case.
Take `Clc1ccc(C(OCn2ccnc2)c2nc3ccccc3[nH]2)c(Cl)c1` (stereo not drawn): the GI50 in experiment [1] was 38.6 µM (inactive); in [2] it was 38.2 µM (inactive); in experiment [3], 56.2 µM (inactive); in [4], 87.3 µM (inactive); in experiment [5] it was 26.1 µM (inactive); in [6], 54.2 µM (inactive). Besides, the GI50 in [7] was 33.8 µM (inactive); in [8], 61.4 µM (inactive); in experiment [9] it was 35 µM (inactive); in [10], 29.6 µM (inactive); in experiment [11], 31.4 µM (inactive); in [12], 43.1 µM (inactive). Also, the GI50 in experiment [13] is 43.3 µM (inactive); in experiment [14] it was 37.5 µM (inactive); in [15] it was 53.3 µM (inactive); in [16], 31.7 µM (inactive); in experiment [17] it was 28.9 µM (inactive); in experiment [18], 23.5 µM (inactive). For the same compound, the GI50 in [19] is 42.7 µM (inactive).
